Values quoted from earlier work as cited in patent publication US20170027976A1, “NOVEL ADEMETIONINE FORMULATIONS” (METHYLATION SCIENCES INTERNATIONAL SRL, priority 2014, published 2017).

Conditions: background statement; large daily doses required

In the case of `C[S+](CC[C@H](N)C(=O)[O-])C[C@H]1O[C@@H](n2cnc3c(N)ncnc32)[C@H](O)[C@@H]1O` (stereo partly drawn) [ademetionine, S-adenosyl-L-methionine], the uptake of ademetionine is given as < 5%.
